Measurements reported in US12194081B2, “ARGINASE1 polypeptides” (IO BIOTECH APS, priority 2018, dated 2025).

How the values were obtained:
[1] = system: CD4+ and CD8+ T cells in PBMCs; test: Intracellular staining for IFNγ and TNFα in CD4+ and CD8+ T cells; format: cell-based, human
Method: Intracellular staining of cell cultures was performed after PBMCs were stimulated with arginase-derived peptides for 5 hours in the presence of BD GolgiPlug™ (added after the first hour of peptide stimulation). Stimulated cells were stained with fluorescently labeled antibodies for surface markers (CD3, CD4, CD8) and thereafter permeabilized by using Fixation/Permeabilization and Permeabilization Buffer (eBioscience, cat. 00-5123-43), according to manufacturer's instructions. Permeabilized cells were then stained with fluorochrome-labeled antibodies for IFNγ and TNFα. Flow cytometry analysis was performed on a FACSCanto™ II (BD Biosciences). Antibodies used: IFNγ-APC (cat. 341117), TNFα-455 BV421 (cat. 562783), CD4-FITC (cat. 347413), CD8-PerCP (cat. 345774), CD3-APC-H7 (cat. 560275) (all from BD Biosciences), dead cells stain-FVS510 (564406, BD Biosciences) according to manufacturer's instructions.

[2] = system: MC38 colon adenocarcinoma; test: Tumour vaccination, MC38 colon adenocarcinoma tumour model; format: in vivo, mouse; settings: 100 μg ArgLong2 with Montanide, days 0, 7, 14; p=0.030 Mixed effects analysis; FIG. 7
Method: (§1) Animals were vaccinated subcutaneously with 100 μg peptide in DMSO/H2O in a 1:1 emulsion with incomplete Montanide ISA 51 VG. Montanide ISA 51 VG+DMSO/H2O served as a control vaccine. For subsequent analysis of the immune response to the ArgLong2 peptide, mice were sacrificed on day 7 and spleen and draining lymph nodes (dLNs) were harvested for ELISPOT setup.
(§2) Each animal was inoculated subcutaneously into the right flank with 0.5×10^6 syngeneic tumour cells in 100 μl media. Both the syngeneic B16 F10 melanoma cells line and the syngeneic MC38 colon adenocarcinoma cell line were used. Vaccinations were initiated on day 0 and repeated once a week (day 7 and day 14). Peptide and control vaccinations were performed as described above.
(§3) Tumour growth was monitored and tumours were measured approximately every second day. Tumour volume was calculated at V [mm^3]=L×W^2/2 (where L is the longest diameter and W perpendicular to L). Maximum tumor size before mice were euthanized was 864 mm^3 (L=12 mm, W=12 mm).

[3] = system: PBMCs stimulated with IL-4, IL-13 or IL-2; test: IFNγ ELISPOT of PBMCs pre-stimulated with Th2 cytokine (IL-4/IL-13) or IL-2; format: cell-based, human
Text: To check for IL-4 induced Arg1 responses, PBMCs were stimulated with IL-4 (100 or 50 U/ml) and/or IL-2 (120 or 60 U/ml) for a week before being set up in the ELISPOT assay as described above.
The PBMCs were thawed and stimulated with IL-4, (50 U/ml or 100 U/ml), IL-2 (120 U/ml) or a combination of IL-4 and IL-2 (50 U/ml and 60 U/ml respectively) for one week before being tested in IFNγ ELISPOT for responses against ArgLong2. Non-stimulated cells were used as control.
Next, PBMCs from 2 cancer patients (BC30 (breast cancer), MM27 (malignant melanoma)) and 6 healthy donors that had previously shown strong spontaneous ex vivo responses against ArgLong2 were stimulated with either low dose IL-2 (120 U/ml) or IL-4 (100 U/ml) for 7 days. Non-stimulated cells were used as control. After 7 days in culture, PBMCs were tested for reactivity against ArgLong2 in IFNγ ELISPOT.
In a separate experiment, PBMCs from a healthy donor (HD22, known to have a pre-existing ex vivo response against ArgLong2) were treated with IL-4 (100 U/ml) or IL-13 (20 U/ml) for 7 days in order to increase presentation of the Arginase 1-derived peptides in the PBMC culture and thus stimulate the intrinsic ArgLong2 specific T cells present in the PBMCs. After 7 days of stimulation with IL-4 or IL-13, the PBMCs were analysed in IFNγ ELISPOT assay to check the changes in the frequency of the ArgLong2-specific T cells.

B16F10 melanoma = test: Tumour vaccination, B16F10 melanoma tumour model; format: in vivo, mouse; settings: 100 μg ArgLong2 with Montanide, days 0, 7, 14; FIG. 8
Method: as §1, §2, §3

[4] = system: PBMCs from cancer patients and healthy donors; test: in vitro IFNγ ELISPOT of PBMCs after 7 days with peptide and IL-2; format: cell-based, human
Method: PBMCs from healthy donors were isolated using density gradient separation over LymphoprepTM (STEMCELL Technologies) and cryopreserved at -150° C. in FBS supplemented with 10% DMSO. PBMCs from cancer patients were isolated from blood sample a minimum of four weeks after the termination of any anti-cancer therapy. The protocol was approved by the Scientific Ethics Committee for The Capital Region of Denmark and conducted in accordance with the provisions of the Declaration of Helsinki. Written informed consent from the patients was obtained before study entry. […] The sequences of the peptides used in these experiments are shown in full below in alignment with each other, and are also set out in the section entitled “Sequences”). Peptides are described by SEQ ID NO, by name, or by reference to the start and end positions of each peptide sequence within the full length sequence of Arginase 1. Each may be used interchangeably. For example, the peptide of SEQ ID NO: 1 may alternatively be referred to by the name ArgLong2, or may alternatively be referred to as […]-206 (given a start position of 169 and end position of 206). The intended reference in each case will be clear from the context. For in vitro ELISPOT, PBMCs from cancer patients and healthy donors were pulsed with 20 μM of Arginase 1-derived peptides and 120 U/ml IL-2 in 24-well plates for 7 days before being used in an ELISPOT assay. The cells were placed in 96-well nitrocellulose ELISPOT plates (MultiScreen MAIP […]; Millipore) pre-coated with IFNγ capture antibody (Mabtech). Arginase peptides added to a final concentration of 5 μM and plates incubated at 37° C. for 14-16 hours. After the incubation the cells were washed off and secondary biotinylated Ab (Mabtech, cat. 3420-6-1000) was added for 2 hours at room temperature. Unbound secondary antibody was washed off and streptavidin conjugated alkaline phosphatase (AP) (Mabtech, cat. 3310-10) was added for 1 hour at room temperature. Unbound conjugated enzyme was washed off and the assay was developed by adding BCIP/NBT substrate (Mabtech, cat. 3650-10). Developed ELISPOT plates were analyzed on CTL ImmunoSpot S6 Ultimate-V analyzer using Immunospot software v5.1. Responses were reported as the difference between average numbers of spots in wells stimulated with Arginase 1 and wells without added peptide.

ISAKDIVYIGLRDVDPGEHYILKTLGIKYFSMTEVDRL (Peptide fragment of human Arginase 1 (ArgLong2)) [38-mer, positions 169-206 of full length human Arginase 1]
ex vivo CD4+ responses, intracellular staining ([1]; PBMCs from two cancer patients (MM27, BC30) without prior peptide stimulation, FIG. 3B left): ex vivo CD4+ responses in PBMCs from both cancer patients | ex vivo CD8+ responses, intracellular staining ([1]; PBMCs from two cancer patients (MM27, BC30) without prior peptide stimulation, FIG. 3B right): ex vivo CD8+ responses in the breast cancer patient PBMCs | CD4+ T cell responses, in vitro intracellular staining ([1]; two healthy donors and one breast cancer patient, one week after stimulation with ArgLong2 and low dose IL-2, FIG. 3A left): detected in one healthy donor and in the breast cancer patient PBMCs | CD8+ T cell responses, in vitro intracellular staining ([1]; two healthy donors and one breast cancer patient, one week after stimulation with ArgLong2 and low dose IL-2, other healthy donor showed only CD8+ response, FIG. 3A right): detected in one healthy donor and in the breast cancer patient PBMCs | tumour growth vs control vaccination, MC38 [2]: significantly delay tumour growth | ArgLong2 responses in IL-4 and IL-13 treated PBMC cultures ([3]; healthy donor HD22, IL-4 100 U/ml or IL-13 20 U/ml for 7 days, vs untreated control, FIG. 10): Increased ArgLong2 responses | cultures with increased responses in IL-4 stimulated cultures ([3]; out of 8 cultures (2 cancer patients, 6 healthy donors), IL-4 100 U/ml for 7 days vs unstimulated and IL-2 stimulated controls, FIG. 5B): 6 cultures | responses against ArgLong2 after IL-4 stimulation of PBMCs ([3]; single melanoma patient, IL-4 50 or 100 U/ml, IL-2 120 U/ml or IL-4+IL-2 for one week, compared with no stimulation or IL-2 alone, FIG. 5A): Strong significant responses were seen in all IL-4 stimulated groups | tumour growth vs control vaccination, B16 (B16F10 melanoma): significantly delay tumour growth | responses in IFNγ ELISPOT (in words) ([4]; PBMCs from 6 healthy donors, peptide and low dose IL-2 for 1 week, FIG. 1): superior at stimulating T cell responses | peptide specific spots in IFNγ ELISPOT where too numerous to count (TNTC) ([4]; TNTC in six healthy donors and 2 cancer patients, 2.2-5×10^5 PBMCs/well, FIG. 2): > 500 spots | donors with high responses in IFNγ ELISPOT ([4]; out of 6 healthy donors, PBMCs stimulated with peptide and low dose IL-2 for 1 week, FIG. 1): 4 donors | cancer patients showing responses in IFNγ ELISPOT ([4]; out of 16 cancer patients (8 melanoma, 6 multiple myeloma, 1 breast cancer, 1 renal cell carcinoma), strong responses counted for ArgLong2, FIG. 2): 8 cancer patients | healthy donors showing responses in IFNγ ELISPOT ([4]; out of 19 healthy donors, strong responses counted for ArgLong2, FIG. 2): 14 healthy donors
